The text below walks through data of ChEMBL document CHEMBL4651402, “Screening of ~5500 FDA-approved drugs and clinical candidates for anti-SARS-CoV-2 activity” (2021).

The test system of the assay is SARS-CoV-2. Kind of assay: microbe, parasite or virus in culture. Particulars: Severe acute respiratory syndrome coronavirus 2, Vero C1008, 48 h.

With `CC12C=CC(=O)C=C1CCC1C2CCC2(C)C(O)CCC12` (stereo unspecified), the IC50 is > 20 µM. The IC50 (read-out: pIC50 (converted)) was > 20 µM.
Turning to `Clc1ccc(C(Cn2ccnc2)OCc2c(Cl)cccc2Cl)c(Cl)c1` (stereo unspecified) [ISOCONAZOLE], the IC50 is > 20 µM. The IC50 (read-out: pIC50 (converted)) was > 20 µM.
As to `CC(=O)c1cnc2ccc(-c3cc(Cl)c(O)c(Cl)c3)nc2c1N[C@H]1CC[C@H](CN(C)C)CC1`, the IC50 was > 20 µM. Besides, where the note is “read-out: pIC50 (converted)”, the IC50 is > 20 µM.
As to `CCCN1CCC[C@@H](c2cccc(S(C)(=O)=O)c2)C1`, the IC50 is > 20 µM. For the same compound, the IC50 (read-out: pIC50 (converted)) is > 20 µM.
As for `CC(=O)Nc1ccc(C(=O)Nc2ccccc2N)cc1` [TACEDINALINE], the IC50 was > 20 µM. Besides, the IC50 (read-out: pIC50 (converted)) is > 20 µM.
Regarding `CC[C@H]1OC(=O)[C@H](C)[C@@H](O[C@H]2C[C@@](C)(OC)[C@@H](O)[C@H](C)O2)[C@H](C)[C@@H](O[C@@H]2O[C@H](C)C[C@H](N(C)C)[C@H]2O)[C@](C)(O)C[C@@H](C)C(=O)[C@H](C)[C@H]2OC(=O)O[C@@]21C`, the IC50 is > 20 µM. For the same compound, the IC50 (read-out: pIC50 (converted)) was > 20 µM.
For `C[C@@]12CCC3[C@@](CC[C@@H]4[C@](C)(C(=O)O)CCC[C@@]34C)(CC1=O)C2` (stereo partly specified), the IC50 is > 20 µM. Moreover, the IC50 (read-out: pIC50 (converted)) was > 20 µM.
Regarding `CCN1CCN(c2ccc(Nc3cc(N(C)C(=O)Nc4c(Cl)c(OC)cc(OC)c4Cl)ncn3)cc2)CC1` [INFIGRATINIB], the IC50 is > 20 µM. Moreover, the IC50 (read-out: pIC50 (converted)) was > 20 µM.
Regarding `CCOC(=O)/C=C/[C@H](C[C@@H]1CCNC1=O)NC(=O)[C@@H](CC(=O)[C@@H](NC(=O)c1cc(C)on1)C(C)C)Cc1ccc(F)cc1`, the IC50 was > 25.1 µM. The IC50 (read-out: pIC50 (converted)) was > 25.1 µM.
As for `[2H]C1([2H])[C@H]2C[C@@H]([C@@H]1Oc1ccc(C(F)(F)F)cn1)N(C(=O)c1cccc(F)c1-c1ncccn1)C2([2H])[2H]`, the IC50 was > 20 µM. Besides, for the setting “read-out: pIC50 (converted)”, the IC50 was > 20 µM.
`Oc1ccc(Cl)c2c1CCC2` [CHLORINDANOL]: the IC50 is > 20 µM. The IC50 (read-out: pIC50 (converted)) was > 20 µM.
For the compound `Cc1c(Cl)cccc1Nc1ncccc1C(=O)OCC(O)CO` (stereo unspecified) [CLONIXERIL], the IC50 was > 20 µM. For the setting “read-out: pIC50 (converted)”, the IC50 was > 20 µM.
Take `CN[C@@H]1[C@H](O[C@H]2[C@H](O[C@@H]3[C@@H](O)[C@H](O)[C@@H](NC(=N)N)[C@H](O)[C@H]3NC(=N)N)O[C@@H](C)[C@]2(O)CO)O[C@@H](CO)[C@H](O)[C@H]1O`: the IC50 was > 20 µM. Also, the IC50 (read-out: pIC50 (converted)) is > 20 µM.
For `NC(=O)N1c2ccccc2CC(=O)c2ccccc21` [OXCARBAZEPINE], the IC50 is > 20 µM. Besides, the IC50 (read-out: pIC50 (converted)) was > 20 µM.
Regarding `CC1CC2Oc3ccc(Cl)cc3C(=O)N2O1` (stereo unspecified) [MESECLAZONE], the IC50 is > 20 µM. Also, the IC50 (read-out: pIC50 (converted)) is > 20 µM.
With `Nc1c2c(nc3c1CCC3)CCCC2` [IPIDACRINE], the IC50 was > 20 µM. Also, where the note is “read-out: pIC50 (converted)”, the IC50 was > 20 µM.
In the case of `CNS(=O)(=O)CCc1ccc2[nH]cc(C3CCN(C)CC3)c2c1`, the IC50 is > 20 µM. Also, under “read-out: pIC50 (converted)”, the IC50 was > 20 µM.
As for `NCC(=O)CCC(=O)O` [AMINOLEVULINIC ACID], the IC50 is > 20 µM. In addition, for the setting “read-out: pIC50 (converted)”, the IC50 was > 20 µM.
Regarding `CC(C)NCC(O)COc1ccc(CC(N)=O)cc1` (racemic) [ATENOLOL], the IC50 is > 20 µM. For the same compound, the IC50 (read-out: pIC50 (converted)) is > 20 µM.
Regarding `CC1(C)S[C@@H]2[C@H](NC(=O)[C@H](N)c3ccc(O)cc3)C(=O)N2[C@H]1C(=O)O` [AMOXICILLIN], the IC50 was > 20 µM. The IC50 (read-out: pIC50 (converted)) is > 20 µM.
As for `CN1C(=O)/C(=N/NC(N)=S)c2ccccc21`, the IC50 is > 20 µM. In addition, the IC50 (read-out: pIC50 (converted)) was > 20 µM.
As for `CSc1ccc2ncn(/C=C/C(=O)O)c(=O)c2c1`, the IC50 was > 20 µM. Also, the IC50 (read-out: pIC50 (converted)) was > 20 µM.
For the compound `CCOC(C(=O)N(C)CCN(C)CCc1ccccc1)(c1ccccc1)c1ccccc1` [CARBIPHENE], the IC50 is > 20 µM. Further, the IC50 (read-out: pIC50 (converted)) was > 20 µM.
On to `N=C(N)NCCNS(=O)(=O)c1cccc2cnccc12`, for which the IC50 is > 20 µM. Also, the IC50 (read-out: pIC50 (converted)) is > 20 µM.
With `CCOC(=O)N1CCC(=C2c3ccc(Cl)cc3CCc3cccnc32)CC1` [LORATADINE], the IC50 was > 20 µM. Besides, the IC50 (read-out: pIC50 (converted)) is > 20 µM.
With `CC(C)[C@](O)(c1ccc2cc(OC(F)F)c(OC(F)F)cc2c1)c1c[nH]nn1` [SEVITERONEL], the IC50 is > 20 µM. For the same compound, under “read-out: pIC50 (converted)”, the IC50 is > 20 µM.
On to `CO[C@H]1C[C@@H]2CC[C@@H](C)[C@@](O)(O2)C(=O)C(=O)N2CCCC[C@H]2C(=O)O[C@H]([C@H](C)C[C@@H]2CC[C@@H](OC(=O)C(C)(CO)CO)[C@H](OC)C2)CC(=O)[C@H](C)/C=C(\C)[C@@H](O)[C@@H](OC)C(=O)[C@H](C)C[C@H](C)/C=C/C=C/C=C/1C` [TEMSIROLIMUS], for which the IC50 is > 20 µM. The IC50 (read-out: pIC50 (converted)) was > 20 µM.
For `O=C(NCNC(=O)NC1C(=O)NC(=O)N1CO)NC1C(=O)NC(=O)N1CO` (stereo unspecified), the IC50 is > 20 µM. Further, under “read-out: pIC50 (converted)”, the IC50 is > 20 µM.
For the compound `CCN1CC(NC(=O)c2cc(Cl)c(N)cc2OC)CN1CC` [DAZOPRIDE], the IC50 is > 20 µM. Moreover, the IC50 (read-out: pIC50 (converted)) is > 20 µM.
Turning to `COc1ccc2c(c1)[nH]c1c(C)nccc12` [HARMINE], the IC50 is > 20 µM. For the same compound, under “read-out: pIC50 (converted)”, the IC50 was > 20 µM.
As for `CNc1cccc(NC(=O)NC2N=C(c3ccccn3)c3ccccc3N(CC(=O)C(C)(C)C)C2=O)c1` (stereo unspecified), the IC50 was > 20 µM. In addition, the IC50 (read-out: pIC50 (converted)) is > 20 µM.
As to `CCC(C)(C)/N=C(\NC#N)Nc1cccnc1`, the IC50 was > 20 µM. Also, the IC50 (read-out: pIC50 (converted)) was > 20 µM.
In the case of `CN(C(=O)C(Cl)Cl)c1ccc(OC(=O)c2ccco2)cc1` [DILOXANIDE FUROATE], the IC50 is > 20 µM. Further, the IC50 (read-out: pIC50 (converted)) was > 20 µM.
In the case of `COc1c(OC)c(OC(C)=O)c2cc(Cl)ccc2c1OC(C)=O` [LONAPALENE], the IC50 was > 20 µM. In addition, the IC50 (read-out: pIC50 (converted)) was > 20 µM.
For the compound `COc1cc2c3cc1Oc1cc(ccc1O)CC1c4c(cc(OC)c(O)c4Oc4ccc(cc4)CC3N(C)CC2)CC[N+]1(C)C` (stereo unspecified), the IC50 is > 20 µM. Moreover, under “read-out: pIC50 (converted)”, the IC50 is > 20 µM.
With `CC1(c2ccccc2)Cc2cc(OCC(=O)O)c(Cl)c(Cl)c2C1=O` (stereo unspecified) [INDACRINONE], the IC50 was > 20 µM. For the setting “read-out: pIC50 (converted)”, the IC50 was > 20 µM.
As for `Cc1nc(O)c2cc(CN(C)c3ccc(C(=O)NC(CCC(=O)O)C(=O)O)s3)ccc2n1` (stereo unspecified), the IC50 was > 20 µM. Where the note is “read-out: pIC50 (converted)”, the IC50 is > 20 µM.
On to `CN(CC(=O)N1CCOCC1)Cc1c(Cl)cccc1NC(=O)c1ccccc1` [FOMINOBEN], for which the IC50 was > 20 µM. Besides, the IC50 (read-out: pIC50 (converted)) was > 20 µM.
With `C[N+]12CCC(CC1)C(OC(=O)C(O)(c1ccccc1)c1ccccc1)C2` (stereo unspecified), the IC50 is > 20 µM. Also, the IC50 (read-out: pIC50 (converted)) was > 20 µM.
`COc1c(N2CCC/C(=C(\F)CN)C2)c(F)cc2c(=O)c(C(=O)O)cn(C3CC3)c12` [ACORAFLOXACIN]: the IC50 was > 20 µM. The IC50 (read-out: pIC50 (converted)) was > 20 µM.
As for `COc1ccc2c(c1)[C@]13CCCC[C@@H]1[C@H](C2)N(C)CC3` [DEXTROMETHORPHAN], the IC50 was > 20 µM. Further, under “read-out: pIC50 (converted)”, the IC50 is > 20 µM.
Regarding `CC(=O)Nc1ccc(C(=O)O)cc1` [ACEDOBEN], the IC50 was > 20 µM. For the same compound, the IC50 (read-out: pIC50 (converted)) is > 20 µM.
Regarding `Cc1cc(-c2nc(CN3CCNCC3)no2)cc2c1C(=O)N(Cc1ccc(OC(F)(F)F)cc1)C2`, the IC50 was > 20 µM. Further, where the note is “read-out: pIC50 (converted)”, the IC50 is > 20 µM.
